Measurements published in US8871208B2, “11-β-hydroxysteroid dehydrogenase type 1 (11β-HSD1) inhibitors and uses thereof” (AbbVie Inc., priority 2009, dated 2014).
Where two headings read alike, the source gives them in different places.

Legend:
[1] = target: T1, truncated human 11β-HSD-1 enzyme (24-287AA) (Homo sapiens, UniProt P28845); assay: Human 11β-HSD-1 enzymatic SPA assay; format: biochemical
T1 construct: truncated human 11β-HSD-1 enzyme (24-287AA); made in house; host or cells: E. coli (lysate)
T1 sequence (P28845 24-287): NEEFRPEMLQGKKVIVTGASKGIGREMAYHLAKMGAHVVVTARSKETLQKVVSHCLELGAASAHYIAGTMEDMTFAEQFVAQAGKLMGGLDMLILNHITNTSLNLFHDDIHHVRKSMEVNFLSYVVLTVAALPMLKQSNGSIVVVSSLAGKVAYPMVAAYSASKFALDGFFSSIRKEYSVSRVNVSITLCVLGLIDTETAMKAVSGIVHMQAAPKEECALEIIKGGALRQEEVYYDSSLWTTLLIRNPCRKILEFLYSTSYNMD
Experimental: (§1) The ability of test compounds to inhibit human 11β-HSD-1 enzymatic activity in vitro was evaluated in a Scintillation Proximity Assay (SPA). […] The reaction was stopped by adding a non-specific 11β-HSD inhibitor, 18β-glycyrrhetinic acid. The tritiated cortisol was captured by a mixture of an anti-cortisol monoclonal antibody and SPA beads coated with anti-mouse antibodies. The reaction plate was shaken at room temperature and the radioactivity bound to SPA beads was then measured on a β-scintillation counter. The 11β-HSD-1 assay was carried out in 96-well microtiter plates in a total volume of 220 μl. […] In order to drive the reaction in the forward direction, 1 mM G-6-P was also added. Solid compound was dissolved in DMSO to make a 10 mM stock followed by a subsequent 10-fold dilution with 3% DMSO in Tris/EDTA buffer (pH 7.4). 22 μl of titrated compounds was then added in triplicate to the substrate. Reactions were initiated by the addition of 10 μl of 0.1 mg/ml E. coli lysates overexpressing 11β-HSD-1 enzyme. After shaking and incubating plates for 30 minutes at room temperature, reactions were stopped by adding 10 μl of 1 mM glycyrrhetinic acid. The product, tritiated cortisol, was captured by adding 10 μl of 1 μM monoclonal anti-cortisol antibodies and 100 μl SPA beads coated with anti-mouse antibodies. After shaking for 30 minutes, plates were read on a liquid scintillation counter Topcount. Percent inhibition was calculated based on the background and the maximal signal. Wells that contained substrate without compound or enzyme were used as the background, while the wells that contained substrate and enzyme without any compound were considered as maximal signal. Percent of inhibition of each compound was calculated relative to the maximal signal and IC50 curves were generated. This assay was applied to 11β-HSD-2 as well, whereby tritiated cortisol and NAD^+ were used as substrate and cofactor, respectively.

[2] = target: T2, human 11β-HSD-2 (Homo sapiens, UniProt P80365); assay: Human 11β-HSD-2 enzymatic SPA assay; format: biochemical
T2 sequence (P80365 1-405): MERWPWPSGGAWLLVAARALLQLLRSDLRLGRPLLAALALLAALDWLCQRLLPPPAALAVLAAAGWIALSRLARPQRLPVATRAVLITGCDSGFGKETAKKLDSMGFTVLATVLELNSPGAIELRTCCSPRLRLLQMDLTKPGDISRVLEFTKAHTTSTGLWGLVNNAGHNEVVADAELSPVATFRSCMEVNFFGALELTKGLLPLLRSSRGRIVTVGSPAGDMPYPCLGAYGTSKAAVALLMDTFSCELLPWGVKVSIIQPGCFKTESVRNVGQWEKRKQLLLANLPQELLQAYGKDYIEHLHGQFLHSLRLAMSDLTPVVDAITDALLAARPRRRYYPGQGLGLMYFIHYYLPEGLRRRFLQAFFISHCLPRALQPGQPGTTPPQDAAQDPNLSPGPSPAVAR
Experimental: as §1

SMILES	IC50 ([1]; human enzyme, SPA) [nM]	IC50 ([2]; human enzyme, SPA) [nM]	IC50 [1] [nM]	IC50 [2] [nM]
CC1(C)C(=O)N(C2CCCCCC2)CC1COc1ccccc1 (stereo not drawn) [1-cycloheptyl-3,3-dimethyl-4-(phenoxymethyl)pyrrolidin-2-one]	95	> 8750	–	–
CN(CC1CN(C2CCCCCC2)C(=O)C1(C)C)c1ccccc1F (stereo not drawn) [1-cycloheptyl-4-{[(2-fluorophenyl)(methyl)amino]methyl}-3,3-dimethylpyrrolidin-2-one]	73	> 10000	–	–
CC(C)(Oc1ccc(Cl)cc1)C(=O)NC1C2CC3CC1CC(Cc1nn[nH]n1)(C3)C2 (stereo not drawn) [2-(4-chlorophenoxy)-2-methyl-N-[(E)-5-(2H-tetraazol-5-ylmethyl)-2-adamantyl]propanamide]	41	> 100000	–	–
CC(C(=O)N[C@@H]1[C@@H]2C[C@@H]3C[C@H]1C[C@@](O)(C3)C2)N1C[C@@H](C)O[C@@H](C)C1 (stereo partly drawn) [2-[(cis)-2,6-dimethylmorpholin-4-yl]-N-[(E)-5-hydroxy-2-adamantyl]propanamide]	110	> 10000	–	–
CC(C(=O)NC1C2CC3CC1CC(O)(C3)C2)N1CCCCCC1 (stereo not drawn) [2-azepan-1-yl-N-[(E)-5-hydroxy-2-adamantyl]propanamide]	92	> 10000	–	–
CC1(C)C(=O)N(C2C3CCCC2CC(C(N)=O)C3)CC1COc1ccc(C#N)cn1 (stereo not drawn) [9-(4-{[(5-cyanopyridin-2-yl)oxy]methyl}-3,3-dimethyl-2-oxopyrrolidin-1-yl)bicyclo[3.3.1]nonane-3-carboxamide]	–	–	51	8280
CC(C)(C(=O)N[C@@H]1[C@@H]2C[C@@H]3C[C@H]1C[C@@](C(=O)O)(C3)C2)c1ccccc1 [(E)-4-(2-methyl-2-phenyl-propionylamino)-adamantane-1-carboxylic acid]	82	> 10000	–	–
CC(C)(C(=O)NC1C2CC3CC1CC(C(=O)O)(C3)C2)N1CCC(F)C1 [(E)-4-({2-[(3R)-3-Fluoropyrrolidin-1-yl]-2-methylpropanoyl}amino)adamantane-1-carboxylic acid]	58	> 10000	–	–
CC1CN(c2ccccn2)CCN1C(C)(C)C(=O)NC1C2CC3CC1CC(C(=O)O)(C3)C2 [(E)-4-({2-methyl-2-[(2S)-2-methyl-4-pyridin-2-ylpiperazin-1-yl]propanoyl}amino) adamantane-1-carboxylic acid]	–	> 30000	–	–
NC(=O)C12CC3CC(C1)C(NC(=O)C1(Oc4ccc(Cl)cc4)CCC1)C(C3)C2 (stereo not drawn) [(E)-4-({[1-(4-chlorophenoxy)cyclobutyl]carbonyl}amino)adamantane-1-carboxamide]	89	90000	–	–
NC(=O)[C@]12C[C@@H]3C[C@H](C1)[C@@H](NC(=O)C1(c4ccc(Cl)cc4)CC1)[C@@H](C3)C2 [(E)-4-({[1-(4-chlorophenyl)cyclopropyl]carbonyl}amino)adamantane-1-carboxamide]	33	> 30000	–	–
CC(C)(OCc1ccc(C(F)(F)F)cc1)C(=O)N[C@@H]1[C@@H]2C[C@@H]3C[C@H]1C[C@@](C(N)=O)(C3)C2 [(E)-4-[(2-methyl-2-{[4-(trifluoromethyl)benzyl]oxy}propanoyl)amino]adamantane-1-carboxamide]	28	> 10000	–	–
CC(C)(Oc1ccc(-n2cccn2)cn1)C(=O)N[C@@H]1[C@@H]2C[C@@H]3C[C@H]1C[C@@](C(N)=O)(C3)C2 [(E)-4-[(2-methyl-2-{[5-(1H-pyrazol-1-yl)pyridin-2-yl]oxy}propanoyl)amino]adamantine-1-carboxamide]	30	> 100000	–	–
CCN(CC)S(=O)(=O)c1cc(Cl)ccc1OC(C)(C)C(=O)NC1C2CC3CC1CC(C(N)=O)(C3)C2 (stereo not drawn) [(E)-4-[(2-{4-chloro-2-[(diethylamino)sulfonyl]phenoxy}-2-methylpropanoyl)amino]adamantane-1-carboxamide]	68	65000	–	–
NC(=O)OC12CC3CC(C1)C(NC(=O)CN1CCN(c4ccc(C(F)(F)F)cn4)CC1)C(C3)C2 (stereo not drawn) [(E)-4-[({4-[5-(trifluoromethyl)pyridin-2-yl]piperazin-1-yl}acetyl)amino]-1-adamantyl carbamate]	150	> 10000	–	–
O=C(O)C12CC3CC(C1)C(NC(=O)C1(c4ccc(Cl)cc4)CCC1)C(C3)C2 (stereo not drawn) [(E)-4-{[1-(4-chloro-phenyl)-cyclobutanecarbonyl]-amino}-adamantane-1-carboxylic acid]	43	> 10000	–	–
CC(C)(C(=O)N[C@@H]1[C@@H]2C[C@@H]3C[C@H]1C[C@@](C(N)=O)(C3)C2)c1ccc(-c2cccnc2)cc1 [(E)-4-{[2-methyl-2-(4-pyridin-3-ylphenyl)propanoyl]amino}adamantane-1-carboxamide]	–	44000	–	–
CC(C)(C)OC(=O)Nc1ccc(OC(C)(C)C(=O)N[C@@H]2[C@@H]3C[C@@H]4C[C@H]2C[C@@](C(N)=O)(C4)C3)cc1 [tert-butyl 4-(2-{[(E)-5-(aminocarbonyl)-2-adamantyl]amino}-1,1-dimethyl-2-oxoethoxy)phenylcarbamate]	–	37000	–	–

Second part, the compound after the results:

IC50 ([1]; human enzyme, SPA) [nM]	IC50 ([2]; human enzyme, SPA) [nM]	IC50 [1] [nM]	IC50 [2] [nM]	SMILES
48	18000	–	–	CC(C)(Oc1ccc(Cl)cc1)C(=O)NC1C2CC3CC1CC(CS(=O)(=O)NCc1ccc(C(=O)O)cc1)(C3)C2 (stereo not drawn) [4-[({[((E)-4-{[2-(4-chlorophenoxy)-2-methylpropanoyl]amino}-1-adamantyl)methyl]sulfonyl}amino)methyl]benzoic acid]
77	8470	–	–	CC12CCC(N3CC(COc4ccc(C#N)cn4)C(C)(C)C3=O)(CC1)CC2 (stereo not drawn) [6-{[4,4-dimethyl-1-(4-methylbicyclo[2.2.2]oct-1-yl)-5-oxopyrrolidin-3-yl]methoxy}nicotinonitrile]
–	1600	41	–	CC1(C)C(=O)N(C2C3CC4CC2CC(C(N)=O)(C4)C3)CC1COc1ccc(-n2cncn2)cc1 (stereo not drawn) [(E)-4-(3,3-dimethyl-2-oxo-4-{[4-(1H-1,2,4-triazol-1-yl)phenoxy]methyl}pyrrolidin-1-yl) adamantane-1-carboxamide]
29	5270	–	–	CC1(C)C(=O)N(C2C3CC4CC2CC(C#N)(C4)C3)CC1COc1ccc(C#N)cn1 (stereo not drawn) [(E)-4-(4-{[(5-cyanopyridin-2-yl)oxy]methyl}-3,3-dimethyl-2-oxopyrrolidin-1-yl) adamantane-1-carbonitrile]
23	6300	–	–	CC1(C(=O)N[C@@H]2[C@@H]3C[C@@H]4C[C@H]2C[C@@](C(N)=O)(C4)C3)CCN(Cc2ccccc2Cl)C1=O (stereo partly drawn) [(E)-4-(aminocarbonyl)-2-adamantyl]-1-(2-chlorobenzyl)-3-methyl-2-oxopyrrolidine-3-carboxamide]
–	10000	–	–	CC1(C(=O)N[C@@H]2[C@@H]3C[C@@H]4C[C@H]2C[C@@](C(N)=O)(C4)C3)CCN(Cc2cccc(Cl)c2)C1=O (stereo partly drawn) [(E)-4-(aminocarbonyl)-2-adamantyl]-1-(3-chlorobenzyl)-3-methyl-2-oxopyrrolidine-3-carboxamide]
23	12000	–	–	Cc1ccccc1CN1CCC(C)(C(=O)NC2C3CC4CC(C3)C(C(N)=O)C2C4)C1=O (stereo not drawn) [(E)-4-(aminocarbonyl)-2-adamantyl]-3-methyl-1-(2-methylbenzyl)-2-oxopyrrolidine-3-carboxamide]
44	11000	–	–	CC(C)(Oc1cccc(C(F)(F)F)c1)C(=O)NC1C2CC3CC1CC(C(N)=O)(C3)C2 (stereo not drawn) [(E)-4-({2-methyl-2-[3-(trifluoromethyl)phenoxy]propanoyl}amino)adamantane-1-carboxamide]
40	2600	–	–	CC(C)(Oc1ccc(OC(F)(F)F)cc1)C(=O)NC1C2CC3CC1CC(C(N)=O)(C3)C2 (stereo not drawn) [(E)-4-({2-methyl-2-[4-(trifluoromethoxy)phenoxy]propanoyl}amino)adamantane-1-carboxamide]
39	1360	–	–	CC1(C)C(=O)N(C2C3CC4CC2CC(C(N)=O)(C4)C3)CC1COc1ccc(C(F)(F)F)cn1 (stereo not drawn) [(E)-4-[3,3-dimethyl-2-oxo-4-({[5-(trifluoromethyl)pyridin-2-yl]oxy}methyl)pyrrolidin-1-yl]adamantane-1-carboxamide]
18	35000	–	–	CC(C)(Oc1ccc(O)cc1)C(=O)N[C@@H]1[C@@H]2C[C@@H]3C[C@H]1C[C@@](C(N)=O)(C3)C2 [(E)-4-{[2-(4-hydroxyphenoxy)-2-methylpropanoyl]amino}adamantane-1-carboxamide]
